Assay results from PMC5218480 (PLoS ONE, 2017).

System: MV-4-11 cells
Test: Gene expression microarray analysis (Affymetrix PrimeView) and GSEA
Assay type: cell-based, human
Design: RFU PODN (11730768_x_at) / Fold change /veh PODN (11730768_x_at) / RFU LINC00158 (11744669_a_at) / Fold change /veh LINC00158 (11744669_a_at) / RFU DUSP10 (11751237_a_at) / Fold change /veh DUSP10 (11751237_a_at) / RFU ID3 (11757404_x_at) / Fold change /veh ID3 (11757404_x_at) / RFU PLEKHG5 (11737974_s_at) / Fold change /veh PLEKHG5 (11737974_s_at) / RFU LRRC4B (11730491_at) / Fold change /veh LRRC4B (11730491_at) / RFU GIMAP4 (11747438_a_at) / Fold change /veh GIMAP4 (11747438_a_at) / RFU KRT8 (11758183_x_at) / Fold change /veh KRT8 (11758183_x_at) / RFU CNN1 (11734310_a_at) / Fold change /veh CNN1 (11734310_a_at) / RFU VPS37D (11726825_at) / Fold change /veh VPS37D (11726825_at) / RFU C10orf10 (11716522_x_at) / Fold change /veh C10orf10 (11716522_x_at) / RFU KIR2DL2 /// KIR2DL4 /// KIR2DL5A /// KIR2DL5B /// KIR2DS1 /// KIR2DS2 /// KIR2DS3 /// KIR2DS4 /// KIR3DL3 /// KIR3DL3 /// KIR3DS1 (11738374_at) / Fold change /veh KIR2DL2 /// KIR2DL4 /// KIR2DL5A /// KIR2DL5B /// KIR2DS1 /// KIR2DS2 /// KIR2DS3 /// KIR2DS4 /// KIR3DL3 /// KIR3DL3 /// KIR3DS1 (11738374_at) / RFU C1QL1 (11718748_at) / Fold change /veh C1QL1 (11718748_at) / RFU TMPRSS4 (11747572_a_at) / Fold change /veh TMPRSS4 (11747572_a_at) / RFU HAMP (11756126_x_at) / Fold change /veh HAMP (11756126_x_at) / RFU RNFT2 (11725882_a_at) / Fold change /veh RNFT2 (11725882_a_at) / RFU NR4A2 (11747474_a_at) / Fold change /veh NR4A2 (11747474_a_at) / RFU ABCC12 (11746883_a_at) / Fold change /veh ABCC12 (11746883_a_at) / RFU TMEM136 (11760407_x_at) / Fold change /veh TMEM136 (11760407_x_at) / RFU CLDN22 /// WWC2 (11732394_at) / Fold change /veh CLDN22 /// WWC2 (11732394_at) / RFU HLA-DPB1 (11760878_x_at) / Fold change /veh HLA-DPB1 (11760878_x_at) / RFU SPINT1 (11716480_a_at) / Fold change /veh SPINT1 (11716480_a_at) / RFU GAP43 (11754022_s_at) / Fold change /veh GAP43 (11754022_s_at) / RFU A4GNT (11735810_at) / Fold change /veh A4GNT (11735810_at) / RFU PRB3 (11715151_x_at) / Fold change /veh PRB3 (11715151_x_at) / RFU TUBB4B (11761932_at) / Fold change /veh TUBB4B (11761932_at) / RFU CAPN14 (11732068_a_at) / Fold change /veh CAPN14 (11732068_a_at) / RFU TMCC2 (11721928_a_at) / Fold change /veh TMCC2 (11721928_a_at) / RFU IRGQ (11745062_a_at) / Fold change /veh IRGQ (11745062_a_at) / RFU FAM174B (11720279_a_at) / Fold change /veh FAM174B (11720279_a_at) / RFU TMPRSS4 (11748680_a_at) / Fold change /veh TMPRSS4 (11748680_a_at) / RFU FAM212B (11763350_a_at) / Fold change /veh FAM212B (11763350_a_at) / RFU PLEKHG5 (11743358_a_at) / Fold change /veh PLEKHG5 (11743358_a_at) / RFU ZSCAN30 (11745921_a_at) / Fold change /veh ZSCAN30 (11745921_a_at) / RFU CMKLR1 (11741424_a_at) / Fold change /veh CMKLR1 (11741424_a_at) / RFU LOC101060620 /// MAPK8IP1 (11723275_at) / Fold change /veh LOC101060620 /// MAPK8IP1 (11723275_at) / RFU SPTSSB (11747773_x_at) / Fold change /veh SPTSSB (11747773_x_at) / RFU PRSS12 (11739890_at) / Fold change /veh PRSS12 (11739890_at) / RFU BIN1 (11741810_x_at) / Fold change /veh BIN1 (11741810_x_at) / RFU WNT11 (11732464_a_at) / Fold change /veh WNT11 (11732464_a_at) / RFU C10orf10 (11716521_a_at) / Fold change /veh C10orf10 (11716521_a_at) / RFU C5orf56 (11738089_at) / Fold change /veh C5orf56 (11738089_at) / RFU CYB561 (11721691_x_at) / Fold change /veh CYB561 (11721691_x_at) / RFU ANKRD19P (11752326_a_at) / Fold change /veh ANKRD19P (11752326_a_at) / RFU OR2T12 /// OR2T33 /// OR2T8 (11738714_s_at) / Fold change /veh OR2T12 /// OR2T33 /// OR2T8 (11738714_s_at) / RFU VCAN (11748164_a_at) / Fold change /veh VCAN (11748164_a_at) / RFU JSRP1 (11732532_at) / Fold change /veh JSRP1 (11732532_at) / RFU KRTAP10-11 (11738290_x_at) / Fold change /veh KRTAP10-11 (11738290_x_at) / RFU MYO3A (11730013_a_at) / Fold change /veh MYO3A (11730013_a_at) / RFU EBF3 (11725865_a_at) / Fold change /veh EBF3 (11725865_a_at) / RFU CAMK2N1 (11719241_x_at) / Fold change /veh CAMK2N1 (11719241_x_at) / RFU C5orf56 (11738088_a_at) / Fold change /veh C5orf56 (11738088_a_at) / RFU OLFML3 (11715873_a_at) / Fold change /veh OLFML3 (11715873_a_at) / RFU LOC100653217 /// NTM (11731650_a_at) / Fold change /veh LOC100653217 /// NTM (11731650_a_at) / RFU MAPK11 (11762145_a_at) / Fold change /veh MAPK11 (11762145_a_at) / RFU FIZ1 (11724087_x_at) / Fold change /veh FIZ1 (11724087_x_at) / RFU OASL (11726364_x_at) / Fold change /veh OASL (11726364_x_at) / RFU SOX15 (11748057_x_at) / Fold change /veh SOX15 (11748057_x_at) / RFU CD79A (11719716_a_at) / Fold change /veh CD79A (11719716_a_at) / RFU HIST1H1D (11736915_at) / Fold change /veh HIST1H1D (11736915_at) / RFU CASKIN2 (11723855_a_at) / Fold change /veh CASKIN2 (11723855_a_at) / RFU LOC730098 (11760151_x_at) / Fold change /veh LOC730098 (11760151_x_at) / RFU OR4N2 (11742367_at) / Fold change /veh OR4N2 (11742367_at) / RFU PRRT2 (11749266_a_at) / Fold change /veh PRRT2 (11749266_a_at) / RFU SNX32 (11753110_a_at) / Fold change /veh SNX32 (11753110_a_at) / RFU CDHR5 (11726645_a_at) / Fold change /veh CDHR5 (11726645_a_at) / RFU RCAN1 (11760418_a_at) / Fold change /veh RCAN1 (11760418_a_at) / RFU FAM167A (11723789_a_at) / Fold change /veh FAM167A (11723789_a_at) / RFU FAM26E (11764081_at) / Fold change /veh FAM26E (11764081_at) / RFU ISYNA1 (11749810_s_at) / Fold change /veh ISYNA1 (11749810_s_at) / RFU ACY1 (11761880_at) / Fold change /veh ACY1 (11761880_at) / RFU 11764098_at / Fold change /veh 11764098_at / RFU SAMD14 (11745864_x_at) / Fold change /veh SAMD14 (11745864_x_at) / RFU NPB (11741838_a_at) / Fold change /veh NPB (11741838_a_at) / RFU TMPRSS6 (11731388_a_at) / Fold change /veh TMPRSS6 (11731388_a_at) / RFU KRTAP10-2 (11738614_at) / Fold change /veh KRTAP10-2 (11738614_at) / RFU ARHGAP8 /// PRR5-ARHGAP8 (11727945_x_at) / Fold change /veh ARHGAP8 /// PRR5-ARHGAP8 (11727945_x_at) / RFU KRTAP5-7 /// NADSYN1 (11734609_at) / Fold change /veh KRTAP5-7 /// NADSYN1 (11734609_at) / RFU RASL12 (11751679_a_at) / Fold change /veh RASL12 (11751679_a_at) / RFU CDKN2B (11736163_a_at) / Fold change /veh CDKN2B (11736163_a_at) / RFU PRF1 (11729649_at) / Fold change /veh PRF1 (11729649_at) / RFU, ZNF638 /// ZNF638-IT1 / Fold change vs veh, ZNF638 /// ZNF638-IT1 / RFU, PANK3 / Fold change vs veh, PANK3 / RFU, SH3YL1 / Fold change vs veh, SH3YL1 / RFU, ZEB2 / Fold change vs veh, ZEB2 / RFU, NRIP1 / Fold change vs veh, NRIP1 / RFU, PTTG1IP / Fold change vs veh, PTTG1IP / RFU, CAPN2 / Fold change vs veh, CAPN2 / RFU, MED14 / Fold change vs veh, MED14 / RFU, SNORA58 / Fold change vs veh, SNORA58 / RFU, C1orf63 / Fold change vs veh, C1orf63 / RFU, LRRFIP1 / Fold change vs veh, LRRFIP1 / RFU, NDUFAF7 / Fold change vs veh, NDUFAF7 / RFU, SLC12A2 / Fold change vs veh, SLC12A2 / RFU, IBTK / Fold change vs veh, IBTK / RFU, ESF1 / Fold change vs veh, ESF1 / Fold change vs veh, TMEM50B / RFU, TAOK1 / Fold change vs veh, TAOK1 / RFU, ACBD3 / Fold change vs veh, ACBD3 / RFU, TMA16 / Fold change vs veh, TMA16 / RFU, RWDD3 / Fold change vs veh, RWDD3 / RFU, BCAT1 / Fold change vs veh, BCAT1 / RFU, EDEM3 / Fold change vs veh, EDEM3 / RFU, TMEM33 / Fold change vs veh, TMEM33 / RFU, WDR75 / Fold change vs veh, WDR75 / RFU, AHCTF1 / Fold change vs veh, AHCTF1 / RFU, TFRC / Fold change vs veh, TFRC / RFU, ZDHHC17 / Fold change vs veh, ZDHHC17 / RFU, NOM1 / Fold change vs veh, NOM1 / RFU, ARL8B / Fold change vs veh, ARL8B / RFU, ZBTB11 / Fold change vs veh, ZBTB11 / RFU, TAMM41 / Fold change vs veh, TAMM41 / RFU, KIAA1704 /// LOC100996395 / Fold change vs veh, KIAA1704 /// LOC100996395 / RFU, ING1 / Fold change vs veh, ING1 / RFU, TRMT61B / Fold change vs veh, TRMT61B / RFU, FUBP3 / Fold change vs veh, FUBP3 / RFU, TP53 / Fold change vs veh, TP53 / RFU, TNKS2 / Fold change vs veh, TNKS2 / RFU, ZFP14 / Fold change vs veh, ZFP14 / RFU, ACTR2 / Fold change vs veh, ACTR2 / RFU, PPP3R1 / Fold change vs veh, PPP3R1 / RFU, PIK3R1 / Fold change vs veh, PIK3R1 / RFU, HNRNPA1 / Fold change vs veh, HNRNPA1 / RFU, RNF170 / Fold change vs veh, RNF170 / RFU, ZNF28 / Fold change vs veh, ZNF28 / RFU, RNGTT / Fold change vs veh, RNGTT / RFU, OGT / Fold change vs veh, OGT / RFU, BRD1 / Fold change vs veh, BRD1 / RFU, MARS / Fold change vs veh, MARS / RFU, ZNF655 / Fold change vs veh, ZNF655 / RFU, FAHD1 / Fold change vs veh, FAHD1 / RFU, BDP1 / Fold change vs veh, BDP1 / RFU, LRRCC1 / Fold change vs veh, LRRCC1 / RFU, ARID1A / Fold change vs veh, ARID1A / RFU, ZNF146 / Fold change vs veh, ZNF146 / RFU, ZNF330 / Fold change vs veh, ZNF330 / RFU, GPN3 / Fold change vs veh, GPN3 / RFU, C9orf123 / Fold change vs veh, C9orf123 / RFU, N4BP2L2 / Fold change vs veh, N4BP2L2 / RFU, ARFIP1 / Fold change vs veh, ARFIP1 / RFU, FAM179B / Fold change vs veh, FAM179B / RFU, BCL10 / Fold change vs veh, BCL10 / RFU, UHRF1BP1L / Fold change vs veh, UHRF1BP1L / RFU, BET1 / Fold change vs veh, BET1 / RFU, CNOT2 / Fold change vs veh, CNOT2 / RFU, ZNF268 / Fold change vs veh, ZNF268 / Fold change vs veh, ZNF507 / RFU, DGCR2 / Fold change vs veh, DGCR2 / RFU, WDSUB1 / Fold change vs veh, WDSUB1 / Fold change vs veh, HSP90B1 /// MIR3652 / RFU, ADSS / Fold change vs veh, ADSS / RFU, GK / Fold change vs veh, GK / RFU, ZNF148 / Fold change vs veh, ZNF148 / RFU, TAF9 / Fold change vs veh, TAF9 / RFU, SLC1A5 / Fold change vs veh, SLC1A5 / RFU, SLMO2 / Fold change vs veh, SLMO2 / RFU, ABCC4 / Fold change vs veh, ABCC4 / RFU, LOC101060439 /// RAP1B / Fold change vs veh, LOC101060439 /// RAP1B / RFU, RFX7 / Fold change vs veh, RFX7 / RFU, GTPBP10 / Fold change vs veh, GTPBP10 / RFU, CNEP1R1 / Fold change vs veh, CNEP1R1 / RFU, BIVM-ERCC5 /// ERCC5 / Fold change vs veh, BIVM-ERCC5 /// ERCC5 / RFU, ILF3 / Fold change vs veh, ILF3 / RFU 11762660_at / Fold change /veh 11762660_at / RFU VCAN (11757783_s_at) / Fold change /veh VCAN (11757783_s_at) / RFU DDX43 (11728927_at) / Fold change /veh DDX43 (11728927_at) / RFU KRT8 (11758188_x_at) / Fold change /veh KRT8 (11758188_x_at) / RFU NKD1 (11759106_at) / Fold change /veh NKD1 (11759106_at) / RFU SRD5A1 (11742802_a_at) / Fold change /veh SRD5A1 (11742802_a_at) / RFU TPSAB1 /// TPSB2 (11721975_s_at) / Fold change /veh TPSAB1 /// TPSB2 (11721975_s_at) / RFU GSTM3 (11746129_a_at) / Fold change /veh GSTM3 (11746129_a_at) / RFU IL23R (11737362_x_at) / Fold change /veh IL23R (11737362_x_at) / RFU TMEM51 (11727254_a_at) / Fold change /veh TMEM51 (11727254_a_at) / RFU PIWIL2 (11732686_x_at) / Fold change /veh PIWIL2 (11732686_x_at) / RFU ORM1 (11744905_x_at) / Fold change /veh ORM1 (11744905_x_at) / RFU CCDC152 (11743942_at) / Fold change /veh CCDC152 (11743942_at) / RFU ECM1 (11717891_a_at) / Fold change /veh ECM1 (11717891_a_at) / RFU IL23R (11748794_a_at) / Fold change /veh IL23R (11748794_a_at) / RFU TNFAIP8L3 (11732012_x_at) / Fold change /veh TNFAIP8L3 (11732012_x_at) / RFU MBOAT4 (11741988_at) / Fold change /veh MBOAT4 (11741988_at) / RFU 11764193_at / Fold change /veh 11764193_at / RFU TMEM53 (11763286_at) / Fold change /veh TMEM53 (11763286_at) / RFU MAGEB2 (11727129_at) / Fold change /veh MAGEB2 (11727129_at) / RFU TMEM200A (11744735_a_at) / Fold change /veh TMEM200A (11744735_a_at) / RFU CCDC152 (11751479_a_at) / Fold change /veh CCDC152 (11751479_a_at) / RFU FAM211A (11726209_a_at) / Fold change /veh FAM211A (11726209_a_at) / RFU RGS16 (11746705_a_at) / Fold change /veh RGS16 (11746705_a_at) / RFU VCAN (11755009_s_at) / Fold change /veh VCAN (11755009_s_at) / RFU RHOB (11743442_s_at) / Fold change /veh RHOB (11743442_s_at) / RFU RGS16 (11720943_a_at) / Fold change /veh RGS16 (11720943_a_at) / RFU RGS16 (11720944_at) / Fold change /veh RGS16 (11720944_at) / RFU, VPS4B / Fold change vs veh, VPS4B / RFU, CREB1 / Fold change vs veh, CREB1 / RFU, DNAJC13 / Fold change vs veh, DNAJC13 / RFU, GNAQ / Fold change vs veh, GNAQ / RFU, CDK5R1 / Fold change vs veh, CDK5R1 / RFU, ZRANB3 / Fold change vs veh, ZRANB3 / RFU, CUL4A / Fold change vs veh, CUL4A / RFU, CCNY / Fold change vs veh, CCNY / RFU, UFL1 / Fold change vs veh, UFL1 / RFU, COG3 / Fold change vs veh, COG3 / RFU, DIAPH2 / Fold change vs veh, DIAPH2 / RFU, SKA2 / Fold change vs veh, SKA2 / RFU, AFF3 / Fold change vs veh, AFF3 / RFU, LMF1 / Fold change vs veh, LMF1 / RFU, IPO11 / Fold change vs veh, IPO11 / RFU, DFFB / Fold change vs veh, DFFB / RFU, FOXP1 / Fold change vs veh, FOXP1 / RFU, CARD8 / Fold change vs veh, CARD8 / RFU, STRN3 / Fold change vs veh, STRN3 / RFU, ADK / Fold change vs veh, ADK / RFU, RASSF2 / Fold change vs veh, RASSF2 / RFU, WIPF1 / Fold change vs veh, WIPF1 / RFU, LARP1B / Fold change vs veh, LARP1B / RFU, RASA1 / Fold change vs veh, RASA1 / RFU, RB1 / Fold change vs veh, RB1 / RFU, PPFIA1 / Fold change vs veh, PPFIA1 / RFU, MAT2A / Fold change vs veh, MAT2A / RFU, CCT5 / Fold change vs veh, CCT5 / RFU, WDR92 / Fold change vs veh, WDR92 / RFU, CUX1 / Fold change vs veh, CUX1 / RFU, TTC7A / Fold change vs veh, TTC7A / RFU, TMEM135 / Fold change vs veh, TMEM135 / RFU, DEPTOR / Fold change vs veh, DEPTOR / RFU, CPM / Fold change vs veh, CPM / RFU, DNAJB6 / Fold change vs veh, DNAJB6 / RFU, CACNA2D3 / Fold change vs veh, CACNA2D3 / RFU, DTX4 / Fold change vs veh, DTX4 / RFU, TFCP2 / Fold change vs veh, TFCP2 / RFU, GMCL1 /// GMCL1P1 / Fold change vs veh, GMCL1 /// GMCL1P1 / RFU, AEBP2 / Fold change vs veh, AEBP2 / RFU, SNHG1 /// SNORD22 /// SNORD25 /// SNORD26 /// SNORD27 /// SNORD28 /// SNORD29 /// SNORD31 / Fold change vs veh, SNHG1 /// SNORD22 /// SNORD25 /// SNORD26 /// SNORD27 /// SNORD28 /// SNORD29 /// SNORD31 / Fold change (Aza/veh), C12orf56 (ProbeSet 11735607_a_at) / Fold change (ACY-1035/veh), C12orf56 (ProbeSet 11735607_a_at) / Fold change (Aza/veh), FGFR1OP (ProbeSet 11751329_s_at) / Fold change (ACY-1035/veh), FGFR1OP (ProbeSet 11751329_s_at) / Fold change (Aza/veh), VPS36 (ProbeSet 11739960_a_at) / Fold change (ACY-1035/veh), VPS36 (ProbeSet 11739960_a_at) / RFU SYPL1 (11715823_x_at) / Fold change /veh SYPL1 (11715823_x_at) / RFU IGFBP7 (11715501_s_at) / Fold change /veh IGFBP7 (11715501_s_at) / RFU REEP3 (11722064_at) / Fold change /veh REEP3 (11722064_at) / RFU IGLL1 (11728026_x_at) / Fold change /veh IGLL1 (11728026_x_at): dose or concentration left out as unconfirmed
Conditions: MV-4-11 cells, 48 hours

Nc1ccc(-c2cccs2)cc1NC(=O)c1ccc2c(c1)cc(C1CC1)n2CCN1CCOCC1 [ACY-1035]
RFU ABCC12 (11746883_a_at): 8.23 RFU
